Assay: Water solubility at 20° C.
Type: physicochemical
Settings: in water at 20° C.; calcium salts according to b99

SMILES | solubility [mg/mL]
CCC(C)C(=O)C(=O)O (stereo not shown) [Keto isoleucine] | 24.3
CSCCC(O)C(=O)O (stereo not drawn) [α-hydroxymethionine] | 52 to 63
CC(C)C(=O)C(=O)O [Keto valine] | 65 to 70
CC(C)CC(=O)C(=O)O [Keto leucine] | 11.9 to 12.5

Source: patent publication US11642314B2, “Mixtures of branched chain keto acids (BCKA) and method for the production of such mixtures” (Evonik Operations GmbH, priority 2018, dated 2023)
